Our source for the remaining binding values is article PMC10004634 (PLOS ONE, 2023).

Test in all cases: biochemical
Holding throughout (design): KINOMEscan scanMAX competition binding, DNA-tagged kinases, qPCR read-out, percent control at 300 nM
A general note: Quantitative PCR measures a nucleic acid by following its amplification.

One test deals with AKT1 (Homo sapiens, UniProt P31749). As to conditions: read-out: Percent control / Zanubrutinib.
The target of a further test is T1, CDK4-cyclinD1 (Homo sapiens, UniProt P11802).
T1 construct: cyclinD1
Conditions: read-out: Percent control / Zanubrutinib.

The target in another test is CSNK2A2 (Homo sapiens, UniProt P19784). As to conditions: read-out: Percent control / Zanubrutinib.
The target in another test is T2, DCAMKL1 (Homo sapiens, UniProt O15075).
T2 construct: gene DCLK1
As to conditions: read-out: Percent control / Zanubrutinib.

The target of the next test is EPHA5 (Homo sapiens, UniProt P54756). As to conditions: read-out: Percent control / Zanubrutinib.
Another test concerns the target T3, MEK6 (Homo sapiens, UniProt P52564).
T3 construct: gene MAP2K6
Conditions: read-out: Percent control / Zanubrutinib.

Another test concerns the target NEK6 (Homo sapiens, UniProt Q9HC98). As to conditions: read-out: Percent control / Zanubrutinib.
The target in a further test is PLK1 (Homo sapiens, UniProt P53350). Conditions: read-out: Percent control / Zanubrutinib.
The next test deals with RIOK2 (Homo sapiens, UniProt Q9BVS4). Conditions: read-out: Percent control / Zanubrutinib.
The target in another test is TGFBR2 (Homo sapiens, UniProt P37173). As to conditions: read-out: Percent control / Zanubrutinib.
In the next test the target is ULK2 (Homo sapiens, UniProt Q8IYT8). Conditions: read-out: Percent control / Zanubrutinib.
A further test addresses VRK2 (Homo sapiens, UniProt Q86Y07). As to conditions: read-out: Percent control / Zanubrutinib.
In the next test the target is EGFR(L747-T751del,Sins) (Homo sapiens, UniProt P00533, DEL747-750/T751S). Conditions: read-out: Percent control / Tirabrutinib.
For the next test, the target named is MARK1 (Homo sapiens, UniProt Q9P0L2). As to conditions: read-out: Percent control / Tirabrutinib.
A further test concerns the target T4, PRKR (Homo sapiens, UniProt P19525).
T4 construct: gene EIF2AK2
Conditions: read-out: Percent control / Tirabrutinib.

A further test deals with CAMK2A (Homo sapiens, UniProt Q9UQM7). Conditions: read-out: Percent control / Ibrutinib.
In test [1] the target is T5, ABL1(T315I)-nonphosphorylated (Homo sapiens, UniProt P00519, T315I).
T5 construct: nonphosphorylated
As to conditions: read-out: Percent control / Acalabrutinib.

In another test the target is CAMK1 (Homo sapiens, UniProt Q14012). As to conditions: read-out: Percent control / Acalabrutinib.
The next test deals with CDK3 (Homo sapiens, UniProt Q00526). As to conditions: read-out: Percent control / Acalabrutinib.
A further test has as its target CSNK1A1 (Homo sapiens, UniProt P48729). As to conditions: read-out: Percent control / Acalabrutinib.
The next test has as its target MAP3K3 (Homo sapiens, UniProt Q99759). Conditions: read-out: Percent control / Acalabrutinib.
For the next test, the target named is PKN2 (Homo sapiens, UniProt Q16513). Conditions: read-out: Percent control / Acalabrutinib.
The target in another test is T6, YANK3 (Homo sapiens, UniProt Q86UX6).
T6 construct: gene STK32C
Conditions: read-out: Percent control / Acalabrutinib.

T3 sequence (P52564 whole entry): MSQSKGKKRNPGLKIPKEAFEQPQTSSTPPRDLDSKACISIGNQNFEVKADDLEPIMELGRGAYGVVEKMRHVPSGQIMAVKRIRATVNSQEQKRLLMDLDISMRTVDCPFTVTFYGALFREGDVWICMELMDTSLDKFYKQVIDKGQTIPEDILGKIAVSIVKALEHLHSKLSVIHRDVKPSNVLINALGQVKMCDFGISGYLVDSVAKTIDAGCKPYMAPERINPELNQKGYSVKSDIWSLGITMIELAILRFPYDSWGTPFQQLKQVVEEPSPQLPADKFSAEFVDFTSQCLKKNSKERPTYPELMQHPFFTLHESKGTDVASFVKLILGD
Sequence of PKN2 (Q16513 whole entry): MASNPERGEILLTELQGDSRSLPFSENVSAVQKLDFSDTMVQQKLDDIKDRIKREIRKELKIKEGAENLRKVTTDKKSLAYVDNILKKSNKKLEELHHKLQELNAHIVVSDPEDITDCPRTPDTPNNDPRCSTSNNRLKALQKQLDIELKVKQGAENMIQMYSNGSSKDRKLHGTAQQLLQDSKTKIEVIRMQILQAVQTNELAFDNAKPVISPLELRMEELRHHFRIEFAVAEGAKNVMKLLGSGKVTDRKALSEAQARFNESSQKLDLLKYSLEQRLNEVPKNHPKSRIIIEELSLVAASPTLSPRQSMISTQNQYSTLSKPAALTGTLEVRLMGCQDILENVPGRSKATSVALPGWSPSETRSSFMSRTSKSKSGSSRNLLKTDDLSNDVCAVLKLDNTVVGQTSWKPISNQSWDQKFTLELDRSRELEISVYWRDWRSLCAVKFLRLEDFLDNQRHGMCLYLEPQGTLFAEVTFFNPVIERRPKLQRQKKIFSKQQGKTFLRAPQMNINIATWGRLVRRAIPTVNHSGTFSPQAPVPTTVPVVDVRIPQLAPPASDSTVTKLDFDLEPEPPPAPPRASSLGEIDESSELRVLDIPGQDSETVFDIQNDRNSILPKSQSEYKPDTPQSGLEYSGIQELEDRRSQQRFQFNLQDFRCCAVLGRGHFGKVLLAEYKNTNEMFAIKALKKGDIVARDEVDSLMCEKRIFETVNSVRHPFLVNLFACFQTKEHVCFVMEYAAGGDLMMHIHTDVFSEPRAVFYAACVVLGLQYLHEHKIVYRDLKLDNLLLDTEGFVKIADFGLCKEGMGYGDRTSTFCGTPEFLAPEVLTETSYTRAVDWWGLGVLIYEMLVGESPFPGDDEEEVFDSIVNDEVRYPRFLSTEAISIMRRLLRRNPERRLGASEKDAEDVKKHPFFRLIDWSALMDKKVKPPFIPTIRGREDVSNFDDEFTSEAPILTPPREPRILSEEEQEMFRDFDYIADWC
Sequence of RIOK2 (Q9BVS4 whole entry): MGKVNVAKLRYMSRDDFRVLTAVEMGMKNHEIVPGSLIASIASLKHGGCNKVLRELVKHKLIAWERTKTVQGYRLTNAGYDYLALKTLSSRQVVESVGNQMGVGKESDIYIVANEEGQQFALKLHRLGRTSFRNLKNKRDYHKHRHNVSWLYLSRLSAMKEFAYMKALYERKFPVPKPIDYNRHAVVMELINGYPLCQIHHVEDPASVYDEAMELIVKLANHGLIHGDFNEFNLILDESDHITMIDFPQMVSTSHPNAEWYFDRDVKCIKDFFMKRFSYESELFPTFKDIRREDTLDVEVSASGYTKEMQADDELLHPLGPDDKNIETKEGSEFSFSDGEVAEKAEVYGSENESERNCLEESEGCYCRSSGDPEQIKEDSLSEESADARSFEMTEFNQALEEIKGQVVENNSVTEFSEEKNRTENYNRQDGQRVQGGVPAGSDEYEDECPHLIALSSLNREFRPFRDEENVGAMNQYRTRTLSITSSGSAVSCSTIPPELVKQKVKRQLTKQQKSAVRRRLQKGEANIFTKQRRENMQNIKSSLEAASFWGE
Sequence of CAMK1 (Q14012 whole entry, looked up): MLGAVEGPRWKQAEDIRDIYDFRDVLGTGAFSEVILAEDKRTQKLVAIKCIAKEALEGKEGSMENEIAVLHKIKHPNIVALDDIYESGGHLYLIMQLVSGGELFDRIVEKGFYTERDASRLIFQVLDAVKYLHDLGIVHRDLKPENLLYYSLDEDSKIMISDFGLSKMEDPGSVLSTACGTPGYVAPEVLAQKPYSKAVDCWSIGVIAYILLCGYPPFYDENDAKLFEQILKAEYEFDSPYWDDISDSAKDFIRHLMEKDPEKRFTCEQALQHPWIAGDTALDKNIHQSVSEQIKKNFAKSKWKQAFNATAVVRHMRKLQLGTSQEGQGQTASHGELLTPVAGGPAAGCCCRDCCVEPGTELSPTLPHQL
Sequence of ULK2 (Q8IYT8 whole entry): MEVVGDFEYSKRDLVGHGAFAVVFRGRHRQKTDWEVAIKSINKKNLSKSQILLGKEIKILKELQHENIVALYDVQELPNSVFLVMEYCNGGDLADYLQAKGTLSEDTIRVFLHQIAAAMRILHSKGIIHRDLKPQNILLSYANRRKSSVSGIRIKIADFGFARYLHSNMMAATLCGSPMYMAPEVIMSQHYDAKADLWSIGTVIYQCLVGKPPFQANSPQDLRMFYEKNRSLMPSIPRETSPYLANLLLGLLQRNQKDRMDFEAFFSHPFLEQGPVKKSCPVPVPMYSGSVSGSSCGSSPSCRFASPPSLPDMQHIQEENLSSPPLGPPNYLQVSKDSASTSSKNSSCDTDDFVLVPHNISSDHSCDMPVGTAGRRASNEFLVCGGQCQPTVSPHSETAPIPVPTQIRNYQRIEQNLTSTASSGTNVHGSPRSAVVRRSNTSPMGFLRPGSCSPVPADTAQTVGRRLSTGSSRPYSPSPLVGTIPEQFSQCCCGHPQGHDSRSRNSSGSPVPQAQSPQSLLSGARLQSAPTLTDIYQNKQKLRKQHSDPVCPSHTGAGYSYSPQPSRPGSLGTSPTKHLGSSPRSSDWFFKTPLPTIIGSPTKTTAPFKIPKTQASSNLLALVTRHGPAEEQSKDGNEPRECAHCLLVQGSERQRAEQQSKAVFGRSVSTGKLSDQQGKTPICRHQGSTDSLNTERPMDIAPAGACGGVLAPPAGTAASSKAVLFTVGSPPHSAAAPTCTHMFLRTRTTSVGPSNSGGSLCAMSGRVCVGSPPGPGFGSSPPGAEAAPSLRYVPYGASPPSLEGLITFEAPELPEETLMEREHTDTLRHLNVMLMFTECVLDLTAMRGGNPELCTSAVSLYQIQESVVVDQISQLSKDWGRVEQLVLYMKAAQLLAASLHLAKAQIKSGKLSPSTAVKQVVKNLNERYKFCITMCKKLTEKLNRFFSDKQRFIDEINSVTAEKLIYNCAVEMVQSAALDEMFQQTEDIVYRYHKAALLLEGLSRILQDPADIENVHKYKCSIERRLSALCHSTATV
Sequence of PLK1 (P53350 whole entry): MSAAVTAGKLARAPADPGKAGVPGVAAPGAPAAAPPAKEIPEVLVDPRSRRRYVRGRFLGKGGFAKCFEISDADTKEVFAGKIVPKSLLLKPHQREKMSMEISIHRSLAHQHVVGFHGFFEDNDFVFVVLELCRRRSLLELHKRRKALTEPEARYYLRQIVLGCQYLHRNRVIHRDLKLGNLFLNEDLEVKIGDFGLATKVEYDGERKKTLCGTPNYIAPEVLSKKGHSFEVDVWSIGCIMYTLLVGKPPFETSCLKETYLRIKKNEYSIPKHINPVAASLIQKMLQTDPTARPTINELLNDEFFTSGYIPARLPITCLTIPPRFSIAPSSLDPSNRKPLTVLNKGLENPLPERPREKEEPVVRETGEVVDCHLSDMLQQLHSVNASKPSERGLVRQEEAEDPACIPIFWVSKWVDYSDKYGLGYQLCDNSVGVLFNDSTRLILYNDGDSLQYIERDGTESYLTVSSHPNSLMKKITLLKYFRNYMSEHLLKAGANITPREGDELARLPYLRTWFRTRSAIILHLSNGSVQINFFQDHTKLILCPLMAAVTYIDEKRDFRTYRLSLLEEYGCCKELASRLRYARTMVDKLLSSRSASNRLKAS
Sequence of AKT1 (P31749 whole entry): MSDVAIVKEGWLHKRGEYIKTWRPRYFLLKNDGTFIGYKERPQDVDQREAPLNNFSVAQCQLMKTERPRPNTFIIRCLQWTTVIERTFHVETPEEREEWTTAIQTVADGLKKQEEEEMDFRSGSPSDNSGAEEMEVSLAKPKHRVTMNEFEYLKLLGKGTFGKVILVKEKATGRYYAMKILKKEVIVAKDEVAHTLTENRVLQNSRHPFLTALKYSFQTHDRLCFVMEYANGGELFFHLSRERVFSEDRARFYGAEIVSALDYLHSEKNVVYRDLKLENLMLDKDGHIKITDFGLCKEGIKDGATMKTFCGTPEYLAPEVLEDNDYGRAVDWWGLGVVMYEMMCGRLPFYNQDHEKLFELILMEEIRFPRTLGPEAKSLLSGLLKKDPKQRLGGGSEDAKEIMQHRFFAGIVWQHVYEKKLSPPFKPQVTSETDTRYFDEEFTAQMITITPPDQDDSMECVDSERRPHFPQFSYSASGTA
T1 sequence (P11802 whole entry): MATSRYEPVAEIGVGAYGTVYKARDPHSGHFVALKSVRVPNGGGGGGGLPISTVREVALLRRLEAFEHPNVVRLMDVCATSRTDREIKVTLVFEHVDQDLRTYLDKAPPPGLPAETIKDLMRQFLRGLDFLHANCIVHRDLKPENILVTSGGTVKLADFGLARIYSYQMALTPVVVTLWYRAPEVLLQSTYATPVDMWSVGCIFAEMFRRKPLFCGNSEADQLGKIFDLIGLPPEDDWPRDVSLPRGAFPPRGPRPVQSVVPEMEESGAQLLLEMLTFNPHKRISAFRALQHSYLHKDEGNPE
T1 sequence (P24385 whole entry partner): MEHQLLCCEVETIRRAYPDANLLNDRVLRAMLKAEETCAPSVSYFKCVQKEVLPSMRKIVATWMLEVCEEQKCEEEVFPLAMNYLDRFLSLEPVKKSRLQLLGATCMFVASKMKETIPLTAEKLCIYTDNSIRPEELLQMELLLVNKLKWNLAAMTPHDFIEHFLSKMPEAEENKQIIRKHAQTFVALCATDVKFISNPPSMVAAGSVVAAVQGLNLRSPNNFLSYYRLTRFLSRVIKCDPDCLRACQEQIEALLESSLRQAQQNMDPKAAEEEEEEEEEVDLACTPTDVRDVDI

For `C=CC(=O)N1CCC([C@@H]2CCNc3c(C(N)=O)c(-c4ccc(Oc5ccccc5)cc4)nn32)CC1` [Zanubrutinib], the remaining binding at 0.3 µM on AKT1 is 100%; at CDK4-cyclinD1 it was 80%; on CSNK2A2 it was 100%; on DCAMKL1, 100%; at EPHA5, 97%; on MEK6, 75%. Further, the remaining binding at 0.3 µM on NEK6 turned out to be 88%; on PLK1, 100%; at RIOK2 it was 94%; on TGFBR2, 90%; at ULK2, 99%; on VRK2, 97%.
`CC#CC(=O)N1CC[C@@H](n2c(=O)n(-c3ccc(Oc4ccccc4)cc3)c3c(N)ncnc32)C1` [Tirabrutinib]: the remaining binding at 0.3 µM at EGFR(L747-T751del,Sins) came out at 80%; at MARK1, 88%; on PRKR it was 93%.
Consider `C=CC(=O)N1CCC[C@@H](n2nc(-c3ccc(Oc4ccccc4)cc3)c3c(N)ncnc32)C1` [Ibrutinib], for which the remaining binding at 0.3 µM on CAMK2A is 82%.
For the compound `CC#CC(=O)N1CCC[C@H]1c1nc(-c2ccc(C(=O)Nc3ccccn3)cc2)c2c(N)nccn12` [Acalabrutinib], the remaining binding at 0.3 µM worked out at 96% in test [1]; 58% on CAMK1; 88% at CDK3; 76% at CSNK1A1; 86% at MAP3K3; 93% on PKN2. Besides, at YANK3, the remaining binding at 0.3 µM came to 84%.
